Measurements as given in article PMC5719086, “Effective in vivo gene delivery with reduced toxicity, achieved by charge and fatty acid -modified cell penetrating peptide” (Scientific Reports, 2017).
Like-named read-outs stand apart in the source and are kept apart here. Square brackets hold non-standard residues; d marks the D form. Peptide text beside a SMILES is read from it. * marks the point of attachment. Docosanoyl = CCCCCCCCCCCCCCCCCCCCCC(=O)*; Stearoyl = CCCCCCCCCCCCCCCCCC(=O)*; Decanoyl = CCCCCCCCCC(=O)*; Orn = NCCC[C@H](N)C(=O)O

Tests used:
mouse RBC = test: Hemolysis assay (activity towards cell membranes); format: cell-based; conditions: 1 h 37 °C, triplicates
Experimental: The ability of the peptides to lyse the red blood cells (RBC) in PBS was used as a measure of membrane activity. To obtain fresh mouse RBC, blood was collected from the saphenous vein using sodium-heparinized (80 iu/ml ± 30%) blood collection capillaries (Marienfeld, Germany) and transferred to heparinized blood collecting tubes (Sarstedt, Germany). To isolate RBCs, the whole blood was centrifuged for 15 minutes at 300 × g, followed by removal of the plasma. The RBCs were then washed three times with 1 × PBS (RBC pelleting with 15 minutes at 300 × g). The resulting RBCs were then resuspended in PBS at 4% (v/v).
For the analysis, 200 μl of RBC suspension was added to 200 μl of peptide solution or peptide/pDNA complexes in 5% glucose (final RBC concentration 2%) and gently vortexed. The peptide/pDNA complexes were prepared using a fixed 1 μg of pDNA and varying amount of the peptide. Following this, samples were incubated for 1 hour at 37 °C with gentle stirring. After incubation, the RBCs were pelleted (15 minutes at 300 × g) and the amount of hemoglobin in the supernatant was assessed by measuring the absorbance at 540 nm using a 96-well microplate reader. The experiments were conducted in triplicates.
100% of hemolysis was defined as the RBCs treated with 0.1% Triton-X100 in PBS and 0% was obtained with cells incubated in 5% glucose solution. % of hemolysis was calculated by the formula: % Hemolysis = [(Asample − Aglucose)/Atriton − Aglucose)] × 100.

proteinase K = target: T1, proteinase K (Parengyodontium album, UniProt P06873); test: Proteinase K treatment of CPP/pDNA complexes; format: in vitro ADME; conditions: 26 °C; for Proteinase K: t1/2 (min) of the complexed pDNA (95%CI): CPP/pDNA complexes at N/P2 in MQ, proteinase K ~2.4 U per well, accessible pDNA by PicoGreen fluorescence, normalized to free pDNA; for stability of the complexes against proteinase K (in words): CPP/pDNA complexes at N/P2, accessible pDNA over time by intercalating dye
T1 construct: purchased Thermo Scientific
T1 sequence (P06873 106-384): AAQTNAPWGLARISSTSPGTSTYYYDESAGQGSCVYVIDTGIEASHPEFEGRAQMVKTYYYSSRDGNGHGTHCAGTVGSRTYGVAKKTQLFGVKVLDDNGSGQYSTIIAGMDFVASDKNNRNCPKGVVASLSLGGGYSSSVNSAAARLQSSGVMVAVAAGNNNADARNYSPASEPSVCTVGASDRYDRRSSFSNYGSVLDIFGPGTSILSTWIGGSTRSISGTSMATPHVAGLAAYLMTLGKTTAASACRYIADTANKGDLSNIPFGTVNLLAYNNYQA
Experimental: For the proteinase K treatment, 30 μl of pre-formed CPP/pDNA complex solution (0.3, 0.2, 0.1 and 0.05 µg of pDNA per sample) or CPP in MQ was transferred to a black 96-well plate and 90 µl of MQ was added. After a short period of mixing, fluorescent DNA intercalating dye dilution was added (Quant-iT™ PicoGreen®, ThermoFisher Scientific) and incubated for 5 minutes at room temperature. The fluorescence was measured (Synergy MX, BioTek; λex 492 and λem 535) to quantify the initial accessibility of pDNA. Thereafter 10 μl of Proteinase K (Thermo Scientific) was added with the final enzyme concentration ~2.4 U per well. Fluorescence was measured over an indicated period at 26 °C. The readings were normalized against the fluorescence of free pDNA.

[1] = Complex stability in FBS, gel shift assay; conditions: 37 °C; for pDNA migration from complexes after 48 h in serum (in words): serum and/or triton + heparin dissociation
Experimental: Then the samples were mixed with the DNA loading dye and electrophoresed exactly as stated above in the Gel shift assay description, using 0.1 µg of pDNA per lane. ZipRuler Express DNA Ladder 2 (ThermoFisher Scientific) was added to each gel.
The stability of the complexes after incubation in FBS, visualized by gel shift assay.

[2] = naked peptide in 5% glucose, mouse RBC 2% final in PBS, hemoglobin absorbance 540 nm, 100% = 0.1% Triton X-100, read-out: EC50 (μM) of CPP (membrane activity, concentration required to lyse 50% of the cells)
[3] = peptide/pDNA complexes, fixed 1 μg pDNA and varying peptide, mouse RBC 2% final, absorbance 540 nm, read-out: EC50 (μM) of CPP/pDNA (membrane activity)

SMILES | EC50 (mouse RBC; [2]) [µM] | EC50 (mouse RBC; [3]) [µM] | Proteinase K: t1/2 (min) of the complexed pDNA (95%CI) (proteinase K) | pDNA migration from complexes after 48 h in serum (in words) ([1]; 50% FBS) | stability of the complexes against proteinase K (in words) (proteinase K) | time to pDNA degradation (DNA smear) in serum ([1]; 50% FBS, EtBr) | onset of DNA migration from complexes in serum ([1]; complexes N/P2 (jetPEI N/P8) in 50% FBS, EtBr) [h]
CCCCCCCCCC(=O)N[C@@H](C)C(=O)NCC(=O)N[C@@H](Cc1ccc(O)cc1)C(=O)N[C@@H](CC(C)C)C(=O)N[C@@H](CC(C)C)C(=O)NCC(=O)N[C@@H](CCCCN)C(=O)N[C@@H](CC(C)C)C(=O)N[C@@H](CC(C)C)C(=O)N[C@@H](CCCN)C(=O)N[C@@H](CCCN)C(=O)N[C@@H](CC(C)C)C(=O)N[C@@H](C)C(=O)N[C@@H](C)C(=O)N[C@@H](C)C(=O)N[C@@H](C)C(=O)N[C@@H](CC(C)C)C(=O)N[C@@H](CCCN)C(=O)N[C@@H](CCCN)C(=O)N[C@@H](CC(C)C)C(=O)N[C@@H](CC(C)C)C(N)=O [C10-PF14] (Decanoyl-AGYLLGKLL[Orn][Orn]LAAAAL[Orn][Orn]LL-NH2) | 0.36 | 0.86 | 26.7 (20.1 ± 32.5) min | less migration and less degradation |  |  | 
CCCCCCCCCCCCCCCCCC(=O)N[C@@H](C)C(=O)NCC(=O)N[C@@H](Cc1ccc(O)cc1)C(=O)N[C@@H](CC(C)C)C(=O)N[C@@H](CC(C)C)C(=O)NCC(=O)N[C@@H](CCCCN)C(=O)N[C@@H](CC(C)C)C(=O)N[C@@H](CC(C)C)C(=O)N[C@@H](CCCN)C(=O)N[C@@H](CCCN)C(=O)N[C@@H](CC(C)C)C(=O)N[C@@H](C)C(=O)N[C@@H](CCCN)C(=O)N[C@@H](CCCN)C(=O)N[C@@H](C)C(=O)N[C@@H](CC(C)C)C(=O)N[C@@H](CCCN)C(=O)N[C@@H](CCCN)C(=O)N[C@@H](CC(C)C)C(=O)N[C@@H](CC(C)C)C(N)=O [PF14-O] (Stearoyl-AGYLLGKLL[Orn][Orn]LA[Orn][Orn]AL[Orn][Orn]LL-NH2) | 0.6 | 1.17 | 94.2 (90.7 ± 97.4) min | migration of pDNA from some of the complexes could be observed |  |  | 
CCCCCCCCCCCCCCCCCCCCCC(=O)N[C@@H](C)C(=O)NCC(=O)N[C@@H](Cc1ccc(O)cc1)C(=O)N[C@@H](CC(C)C)C(=O)N[C@@H](CC(C)C)C(=O)NCC(=O)N[C@@H](CCCCN)C(=O)N[C@@H](CC(C)C)C(=O)N[C@@H](CC(C)C)C(=O)N[C@@H](CCCN)C(=O)N[C@@H](CCCN)C(=O)N[C@@H](CC(C)C)C(=O)N[C@@H](C)C(=O)N[C@@H](CCCN)C(=O)N[C@@H](CCCN)C(=O)N[C@@H](C)C(=O)N[C@@H](CC(C)C)C(=O)N[C@@H](CCCN)C(=O)N[C@@H](CCCN)C(=O)N[C@@H](CC(C)C)C(=O)N[C@@H](CC(C)C)C(N)=O [C22-PF14-O] (Docosanoyl-AGYLLGKLL[Orn][Orn]LA[Orn][Orn]AL[Orn][Orn]LL-NH2) |  |  |  | migration of pDNA from some of the complexes could be observed | virtually inaccessible to the enzyme |  | 
CCCCCCCCCCCCCCCCCC(=O)N[C@@H](C)C(=O)NCC(=O)N[C@@H](Cc1ccc(O)cc1)C(=O)N[C@@H](CC(C)C)C(=O)N[C@@H](CC(C)C)C(=O)NCC(=O)N[C@@H](CCCCN)C(=O)N[C@@H](CC(C)C)C(=O)N[C@@H](CC(C)C)C(=O)N[C@@H](CCC(=O)O)C(=O)N[C@@H](CCCN)C(=O)N[C@@H](CC(C)C)C(=O)N[C@@H](C)C(=O)N[C@@H](C)C(=O)N[C@@H](C)C(=O)N[C@@H](C)C(=O)N[C@@H](CC(C)C)C(=O)N[C@@H](CCCN)C(=O)N[C@@H](CCCN)C(=O)N[C@@H](CC(C)C)C(=O)N[C@@H](CC(C)C)C(N)=O [PF14-E] (Stearoyl-AGYLLGKLLE[Orn]LAAAAL[Orn][Orn]LL-NH2) | 0.67 | 2.36 | 16.7 (10.5 ± 21.8) min |  |  |  | 
CCCCCCCCCCCCCCCCCCCCCC(=O)N[C@@H](C)C(=O)NCC(=O)N[C@@H](Cc1ccc(O)cc1)C(=O)N[C@@H](CC(C)C)C(=O)N[C@@H](CC(C)C)C(=O)NCC(=O)N[C@@H](CCCCN)C(=O)N[C@@H](CC(C)C)C(=O)N[C@@H](CC(C)C)C(=O)N[C@@H](CCCN)C(=O)N[C@@H](CCCN)C(=O)N[C@@H](CC(C)C)C(=O)N[C@@H](C)C(=O)N[C@@H](C)C(=O)N[C@@H](C)C(=O)N[C@@H](C)C(=O)N[C@@H](CC(C)C)C(=O)N[C@@H](CCCN)C(=O)N[C@@H](CCCN)C(=O)N[C@@H](CC(C)C)C(=O)N[C@@H](CC(C)C)C(N)=O [C22-PF14] (Docosanoyl-AGYLLGKLL[Orn][Orn]LAAAAL[Orn][Orn]LL-NH2) | 0.64 | 1.47 | 162.7 (159.6 ± 166.7) min | less migration and less degradation |  |  | 
CC(C)C[C@H](NC(=O)[C@H](CC(C)C)NC(=O)[C@H](CCCN)NC(=O)[C@H](CCCN)NC(=O)[C@H](CC(C)C)NC(=O)[C@H](C)NC(=O)[C@H](C)NC(=O)[C@H](C)NC(=O)[C@H](C)NC(=O)[C@H](CC(C)C)NC(=O)[C@H](CCCN)NC(=O)[C@H](CCCN)NC(=O)[C@H](CC(C)C)NC(=O)[C@H](CC(C)C)NC(=O)[C@H](CCCCN)NC(=O)CNC(=O)[C@H](CC(C)C)NC(=O)[C@H](CC(C)C)NC(=O)[C@H](Cc1ccc(O)cc1)NC(=O)CNC(=O)[C@H](C)N)C(N)=O [C0-PF14] (H-AGYLLGKLL[Orn][Orn]LAAAAL[Orn][Orn]LL-NH2) | 5.36 | 7.09 | 0.5 (−0.8 ± 1.5) min |  | clearly a favorable substrate to the proteinase | about 24 h | ≤ 0.5
